Measurements published in patent publication US12251447B2, “Combined formulation comprising four linked cytotoxic T lymphocyte (CTL) epitopes and a PD-1 pathway inhibitor and methods of use thereof to treat cancer” (Taiho Pharmaceutical Co., Ltd., priority 2018, dated 2025).
Ends that are not written are not given here.

Key:
Format in all cases: in vivo, mouse
[1] = Example 6: rate of change in body weight; conditions: 18 days after cell transplantation vs Day 0
Protocol: (§1) Body weight was measured using an electronic balance for animals, and a rate of change in body weight (BWC) was calculated from the body weight measured on Day 0 (the day of grouping, BW0) and the body weight on 18 days after cell transplantation (BW) according to the following formula. Rate of change in body weight BWC (%)=(BW−BW0)/BW0×100
9-week-old B2 m^tm2(HLA-A24/H-2Db/B2M)Tai mice were randomly assigned to groups each involving 15 animals. The day of grouping was defined as Day 0.
This study was conducted in the same way as in Example 4 except that TPV07 or TPV08 was used instead of TPV06 as a peptide having 4 linked epitopes. TPV07 and TPV08, as in TPV06, were each prepared into 6 mg/mL using distilled water (Otsuka Pharmaceutical Factory Inc.) and then mixed with the equivalent amount of Montanide™ ISA 51 VG (SEPPIC) to prepare an emulsion, which was administered.

[2] = Example 4: rate of change in body weight; conditions: body weight 18 days after cell transplantation vs Day 0
Protocol: 8-week-old B2m^tm2(HLA-A24/H-2Db/B2M)Tai mice were randomly assigned to groups each involving 15 animals. The day of grouping was defined as Day 0. A 6 mg/mL peptide solution was prepared by dissolving a peptide having 4 linked epitopes TPV06 in distilled water (Otsuka Pharmaceutical Factory Inc.), and filled into the B Braun Injekt syringe (B. Braun Melsungen AG). After the equivalent amount of Montanide™ ISA 51 VG (SEPPIC) was filled into another syringe, these syringes were connected to each other via a connector, and the peptide solution was thoroughly mixed with Montanide™ ISA 51 VG to prepare an emulsion. Also, an emulsion of distilled water mixed with the equivalent amount of Montanide™ ISA 51 VG was prepared as a vehicle control. Each of these emulsions was subcutaneously administered weekly in amounts of 100 μL each in the vicinity of base of tail of each B2m^tm2(HLA-A24/H-2Db/B2M)Tai mouse, and administrations were carried out three times in total (Days 0, 7, and 14). […]
Body weight was measured using an electronic balance for animals, and a rate of change in body weight (BWC) was calculated from the body weight measured on Day 0 (the day of grouping, BW0) and the body weight on 18 days after cell transplantation (BW) according to the following formula. […]

[3] = Example 5: rate of change in body weight; conditions: 18 days after cell transplantation vs Day 0
Protocol: as §1
9-week-old B2m^tm2(HLA-A24/H-2Db/B2M)Tai mice were randomly assigned to groups each involving 15 animals. The day of grouping was defined as Day 0.
This study was conducted in the same way as in Example 4 except that an anti-mouse PD-L1 antibody was used instead of the anti-mouse PD-1 antibody. GoInVivo™ Purified anti-mouse CD274 (B7-H1, PD-L1) (Clone: 10F.9G2, BioLegend, Inc.) was prepared as an anti-mouse PD-L1 antibody (anti-mPD-L1 Ab) into 1 mg/mL using D-PBS (FUJIFILM Wako Pure Chemical Corp.) immediately before administration. One week after final administration of the emulsions (Day 21), the anti-mouse PD-L1 antibody was intraperitoneally administered at 200 μg/body.

Sequence	BWC (%) change in body weight [1]	BWC (%) rate of change in body weight [2]	BWC (%) change in body weight [3]
DYSARWNEIRRQIRPIFSNRRRVYDYNCHVDLRRILEQSGEWWK [TPV08, PEP5-RR-PEP9-RR-PEP6-RR-PEP10]	21.7%	–	–
DYSARWNEIRRQIRPIFSNRRRVYDYNCHVDLRRASLDSDPWV [TPV07, PEP5-RR-PEP9-RR-PEP6-RR-PEP2]	18.9%	–	–
DYSARWNEIRRQIRPIFSNRRRVYDYNCHVDLRRLLQAEAPRL [TPV06, PEP5-RR-PEP9-RR-PEP6-RR-PEP4]	–	27.0%	21.9%
